In patent publication US11419869B2, “Dosage forms and regimens for amino acid compounds” (Pliant Therapeutics, Inc., priority 2019, dated 2022):

Molecular target: recombinant human integrin αvβ6 (Homo sapiens (Human), UniProt P06756+P18564)
Assay: Solid Phase Integrin αvβ6 Binding Assay (Examples B1, B2)
Conditions: TGFβ1 LAP ligand, values given in four ranges, read-out: αvβ6 Inhibition IC50 (nM)-range
Procedure: (§1) Microplates were coated with recombinant human integrin αvβ6 (2 μg/mL) in PBS (100 μL/well 25° C., overnight). The coating solution was removed, washed with wash buffer (0.05% Tween 20; 0.5 mM MnCl2; in 1×TBS). The plate was blocked with 200 μL/well of Block Buffer (1% BSA; 5% sucrose; 0.5 mM MnCl2; in 1×TBS) at 37° C. for 2 h. Dilutions of testing compounds and recombinant TGFβ1 LAP (0.67 μg/mL) in binding buffer (0.05% BSA; 2.5% sucrose; 0.5 mM MnCl2; in 1×TBS) were added. The plate was incubated for 2 hours at 25° C., washed, and incubated for 1 hour with Biotin-Anti-hLAP. Bound antibody was detected by peroxidase-conjugated streptavidin. The IC50 values for testing compounds were calculated by four-parameter logistic regression.
The compounds tested were compound samples prepared according to procedures described in the Synthetic Examples section, with the stereochemical purity as indicated in the Examples.
as §1, with “A third series of exemplary compounds was selected for testing in the solid phase integrin αvβ6 binding assay. The compounds tested were compound samples prepared according to procedures described in the Synthetic Examples section, with the stereochemical purity as indicated in the Examples. As in Example B1, microplates were coated” for “Microplates were coated”, “calculated by a four-parameter logistic” for “calculated by four-parameter logistic”

recombinant human integrin αvβ6, sequence (P06756 31-992): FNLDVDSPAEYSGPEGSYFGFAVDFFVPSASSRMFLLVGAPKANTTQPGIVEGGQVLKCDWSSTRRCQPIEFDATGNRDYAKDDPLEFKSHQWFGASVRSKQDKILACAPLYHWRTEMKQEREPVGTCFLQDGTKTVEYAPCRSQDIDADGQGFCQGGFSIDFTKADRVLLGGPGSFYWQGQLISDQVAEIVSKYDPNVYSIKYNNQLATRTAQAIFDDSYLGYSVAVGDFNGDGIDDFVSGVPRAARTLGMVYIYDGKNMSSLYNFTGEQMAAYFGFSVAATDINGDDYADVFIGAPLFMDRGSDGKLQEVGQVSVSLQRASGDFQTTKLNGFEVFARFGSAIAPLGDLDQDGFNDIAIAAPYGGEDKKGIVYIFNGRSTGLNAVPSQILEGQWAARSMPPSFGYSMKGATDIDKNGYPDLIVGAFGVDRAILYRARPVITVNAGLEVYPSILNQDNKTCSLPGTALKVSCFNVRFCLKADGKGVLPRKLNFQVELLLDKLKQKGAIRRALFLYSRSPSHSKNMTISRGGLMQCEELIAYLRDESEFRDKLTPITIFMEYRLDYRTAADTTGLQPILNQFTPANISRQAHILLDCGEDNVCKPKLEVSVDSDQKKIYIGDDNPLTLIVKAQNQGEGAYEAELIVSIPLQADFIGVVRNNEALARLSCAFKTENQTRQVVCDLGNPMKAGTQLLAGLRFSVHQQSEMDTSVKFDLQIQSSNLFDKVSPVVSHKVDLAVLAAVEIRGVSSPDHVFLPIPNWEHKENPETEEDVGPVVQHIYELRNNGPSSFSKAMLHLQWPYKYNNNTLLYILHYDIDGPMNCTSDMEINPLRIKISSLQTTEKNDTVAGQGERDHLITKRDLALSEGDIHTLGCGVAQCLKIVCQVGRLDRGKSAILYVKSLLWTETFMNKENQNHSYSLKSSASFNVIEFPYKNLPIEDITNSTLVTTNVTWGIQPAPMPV
recombinant human integrin αvβ6, sequence (P18564 22-707): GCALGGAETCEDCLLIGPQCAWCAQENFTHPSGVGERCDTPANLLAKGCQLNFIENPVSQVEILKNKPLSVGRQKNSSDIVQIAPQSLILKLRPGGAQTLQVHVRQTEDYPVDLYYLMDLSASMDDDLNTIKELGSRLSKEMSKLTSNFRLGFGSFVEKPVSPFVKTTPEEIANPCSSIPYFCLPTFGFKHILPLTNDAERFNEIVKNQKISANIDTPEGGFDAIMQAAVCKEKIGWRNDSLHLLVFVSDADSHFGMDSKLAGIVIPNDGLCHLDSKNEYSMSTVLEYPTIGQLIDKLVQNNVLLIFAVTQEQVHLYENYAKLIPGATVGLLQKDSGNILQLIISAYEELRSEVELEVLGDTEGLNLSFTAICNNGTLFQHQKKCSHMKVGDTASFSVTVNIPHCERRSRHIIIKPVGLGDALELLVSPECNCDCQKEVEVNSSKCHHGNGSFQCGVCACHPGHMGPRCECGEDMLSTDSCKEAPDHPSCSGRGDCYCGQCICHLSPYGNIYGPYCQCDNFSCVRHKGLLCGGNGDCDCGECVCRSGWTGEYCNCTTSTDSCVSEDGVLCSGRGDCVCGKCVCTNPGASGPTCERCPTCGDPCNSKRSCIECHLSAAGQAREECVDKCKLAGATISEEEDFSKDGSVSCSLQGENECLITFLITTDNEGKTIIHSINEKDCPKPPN

Row | SMILES | IC50 [nM]
1 | Cc1ccc(OCCN(CCCCc2ccc3c(n2)NCCC3)CC[C@H](Nc2ncnc3ccccc23)C(=O)O)cn1 [Compound 59, (S)-4-((2-((6-methylpyridin-3-yl)oxy)ethyl) (4-(5,6,7,8-tetrahydro-1,8-naphthyridin-2-yl)butyl)amino)-2-(quinazolin-4-ylamino) butanoic acid] | < 50
2 | CC(=O)NCCN(CCCCc1ccc2c(n1)NCCC2)CC[C@H](Nc1ncnc2ccccc12)C(=O)O [Compound 63, (S)-4-((2-acetamidoethyl) (4-(5,6,7,8-tetrahydro-1,8-naphthyridin-2-yl)butyl)amino)-2-(quinazolin-4-ylamino) butanoic acid] | < 50
3 | CO[C@H](C)CN(CCCCc1ccc2c(n1)NCCC2)CC[C@H](Nc1nc(C)nc2cc(F)ccc12)C(=O)O [Compound 65, (S)-2-((7-fluoro-2-methylquinazolin-4-yl)amino)-4-(((R)-2-methoxypropyl) (4-(5,6,7,8-tetrahydro-1,8-naphthyridin-2-yl)butyl)amino) butanoic acid] | < 50
4 | CO[C@H](C)CN(CCCCc1ccc2c(n1)NCCC2)CC[C@H](Nc1ncc(C#N)cn1)C(=O)O [Compound 68, (S)-2-((5-cyanopyrimidin-2-yl)amino)-4-(((R)-2-methoxypropyl) (4-(5,6,7,8-tetrahydro-1,8-naphthyridin-2-yl)butyl)amino) butanoic acid] | < 50
5 | CO[C@H](C)CN(CCCCc1ccc2c(n1)NCCC2)CC[C@H](Nc1ncc(Br)cn1)C(=O)O [Compound 70, (S)-2-((5-bromopyrimidin-2-yl)amino)-4-(((R)-2-methoxypropyl) (4-(5,6,7,8-tetrahydro-1,8-naphthyridin-2-yl)butyl)amino) butanoic acid] | < 50
6 | CO[C@H](C)CN(CCCCc1ccc2c(n1)NCCC2)CC[C@H](Nc1ncnc2[nH]ncc12)C(=O)O [Compound 71, (S)-2-((1H-pyrazolo[3,4-d]pyrimidin-4-yl)amino)-4-(((R)-2-methoxypropyl) (4-(5,6,7,8-tetrahydro-1,8-naphthyridin-2-yl)butyl)amino) butanoic acid] | < 50
7 | CO[C@H](C)CN(CCCCc1ccc2c(n1)NCCC2)CC[C@H](Nc1ccnc(C(F)(F)F)n1)C(=O)O [Compound 72, (S)-4-(((R)-2-methoxypropyl) (4-(5,6,7,8-tetrahydro-1,8-naphthyridin-2-yl)butyl)amino)-2-((2-(trifluoromethyl)pyrimidin-4-yl)amino) butanoic acid] | < 50
8 | CO[C@H](C)CN(CCCCc1ccc2c(n1)NCCC2)CC[C@H](Nc1ncnc2c1cnn2C)C(=O)O [Compound 74, (S)-4-(((R)-2-methoxypropyl) (4-(5,6,7,8-tetrahydro-1,8-naphthyridin-2-yl)butyl)amino)-2-((1-methyl-1H-pyrazolo[3,4-d]pyrimidin-4-yl)amino) butanoic acid] | < 50
9 | O=C(O)[C@H](CCN(CCO)CCCCc1ccc2c(n1)NCCC2)Nc1ncnc2ccccc12 [Compound 75, (S)-4-((2-hydroxyethyl) (4-(5,6,7,8-tetrahydro-1,8-naphthyridin-2-yl)butyl)amino)-2-(quinazolin-4-ylamino) butanoic acid] | < 50
10 | CO[C@H](C)CN(CCCCc1ccc2c(n1)NCCC2)CC[C@H](Nc1nccnc1C#N)C(=O)O [Compound 76, (S)-2-((3-cyanopyrazin-2-yl)amino)-4-(((R)-2-methoxypropyl) (4-(5,6,7,8-tetrahydro-1,8-naphthyridin-2-yl)butyl)amino) butanoic acid] | < 50

The next lines start with the values.

Row | IC50 [nM] | SMILES
11 | < 50 | O=C(O)[C@H](CCN(CCCCc1ccc2c(n1)NCCC2)CCOc1cncc(F)c1)Nc1ncnc2cccnc12 [Compound 60, (S)-4-((2-((5-fluoropyridin-3-yl)oxy)ethyl) (4-(5,6,7,8-tetrahydro-1,8-naphthyridin-2-yl)butyl)amino)-2-(pyrido[3,2-d]pyrimidin-4-ylamino) butanoic acid]
12 | < 50 | Cc1nc(N[C@@H](CCN(CCCCc2ccc3c(n2)NCCC3)CCOc2cncc(F)c2)C(=O)O)c2ccc(F)cc2n1 [Compound 61, (S)-2-((7-fluoro-2-methylquinazolin-4-yl)amino)-4-((2-((5-fluoropyridin-3-yl)oxy)ethyl) (4-(5,6,7,8-tetrahydro-1,8-naphthyridin-2-yl)butyl)amino) butanoic acid]
13 | < 50 | CO[C@H](C)CN(CCCCc1ccc2c(n1)NCCC2)CC[C@H](Nc1ncnc2ccccc12)C(=O)O [Compound 62, (S)-4-(((R)-2-methoxypropyl) (4-(5,6,7,8-tetrahydro-1,8-naphthyridin-2-yl)butyl)amino)-2-(quinazolin-4-ylamino) butanoic acid]
14 | < 50 | CN(C)C(=O)CN(CCCCc1ccc2c(n1)NCCC2)CC[C@H](Nc1ncnc2ccccc12)C(=O)O [Compound 64, (S)-4-((2-(dimethylamino)-2-oxoethyl) (4-(5,6,7,8-tetrahydro-1,8-naphthyridin-2-yl)butyl)amino)-2-(quinazolin-4-ylamino) butanoic acid]
15 | < 50 | CO[C@H](C)CN(CCCCc1ccc2c(n1)NCCC2)CC[C@H](Nc1nc(C)nc2ccccc12)C(=O)O [Compound 66, (S)-4-(((R)-2-methoxypropyl) (4-(5,6,7,8-tetrahydro-1,8-naphthyridin-2-yl)butyl)amino)-2-((2-methylquinazolin-4-yl)amino) butanoic acid]
16 | < 50 | COCCN(CCCCc1ccc2c(n1)NCCC2)CC[C@H](Nc1nccnc1C#N)C(=O)O [Compound 67, (S)-2-((3-cyanopyrazin-2-yl)amino)-4-((2-methoxyethyl) (4-(5,6,7,8-tetrahydro-1,8-naphthyridin-2-yl)butyl)amino) butanoic acid]
17 | < 50 | CO[C@H](C)CN(CCCCc1ccc2c(n1)NCCC2)CC[C@H](Nc1ncc(C(F)(F)F)cn1)C(=O)O [Compound 69, (S)-4-(((R)-2-methoxypropyl) (4-(5,6,7,8-tetrahydro-1,8-naphthyridin-2-yl)butyl)amino)-2-((5-(trifluoromethyl)pyrimidin-2-yl)amino) butanoic acid]
18 | < 50 | CO[C@H](C)CN(CCCCc1ccc2c(n1)NCCC2)CC[C@H](Nc1ccnc(-c2ccccc2)n1)C(=O)O [Compound 73, (S)-4-(((R)-2-methoxypropyl) (4-(5,6,7,8-tetrahydro-1,8-naphthyridin-2-yl)butyl)amino)-2-((2-phenylpyrimidin-4-yl)amino) butanoic acid]
19 | < 50 | CO[C@H](C)CN(CCCCc1ccc2c(n1)NCCC2)CC[C@H](Nc1cc(-n2cccn2)ncn1)C(=O)O [Compound 77, (S)-2-((6-(1H-pyrazol-1-yl)pyrimidin-4-yl)amino)-4-(((R)-2-methoxypropyl) (4-(5,6,7,8-tetrahydro-1,8-naphthyridin-2-yl)butyl)amino) butanoic acid]
20 | < 50 | CO[C@H](C)CN(CCCCc1ccc2c(n1)NCCC2)CC[C@H](Nc1ncc(F)cn1)C(=O)O [Compound 78, (S)-2-((5-fluoropyrimidin-2-yl)amino)-4-(((R)-2-methoxypropyl) (4-(5,6,7,8-tetrahydro-1,8-naphthyridin-2-yl)butyl)amino) butanoic acid]
21 | < 50 | CO[C@H](C)CN(CCCCc1ccc2c(n1)NCCC2)CC[C@H](Nc1ncnc2cn[nH]c12)C(=O)O [Compound 79, (S)-2-((1H-pyrazolo[4,3-d]pyrimidin-7-yl)amino)-4-(((R)-2-methoxypropyl) (4-(5,6,7,8-tetrahydro-1,8-naphthyridin-2-yl)butyl)amino) butanoic acid]
22 | < 50 | CO[C@H](C)CN(CCCCc1ccc2c(n1)NCCC2)CC[C@H](Nc1cc(-c2ccccc2)ncn1)C(=O)O [Compound 80, (S)-4-(((R)-2-methoxypropyl) (4-(5,6,7,8-tetrahydro-1,8-naphthyridin-2-yl)butyl)amino)-2-((6-phenylpyrimidin-4-yl)amino) butanoic acid]
23 | < 50 | CO[C@H](C)CN(CCCCc1ccc2c(n1)NCCC2)CC[C@H](Nc1ncncc1-c1ccccc1)C(=O)O [Compound 81, (S)-4-(((R)-2-methoxypropyl) (4-(5,6,7,8-tetrahydro-1,8-naphthyridin-2-yl)butyl)amino)-2-((5-phenylpyrimidin-4-yl)amino) butanoic acid]
24 | < 50 | Cn1ncc2c(N[C@@H](CCN(CCCCc3ccc4c(n3)NCCC4)CCOc3ccccc3)C(=O)O)ncnc21 [Compound 82, (S)-2-((1-methyl-1H-pyrazolo[3,4-d]pyrimidin-4-yl)amino)-4-((2-phenoxyethyl) (4-(5,6,7,8-tetrahydro-1,8-naphthyridin-2-yl)butyl)amino) butanoic acid]
